Results published in patent publication US11179399B2, “6-heterocyclyl-4-morpholin-4-ylpyridine-2-one compounds useful for the treatment of cancer and diabetes” (Sprint Bioscience AB, priority 2016, dated 2021).
Like-named read-outs stand apart in the source and are kept apart here.

Tests used:
Vps34 enzyme = Vps34 enzyme (Homo sapiens (Human), UniProt Q8NEB9); experiment: Vps34 biochemical assay (Adapta kinase assay); conditions: 20 μM ATP and 200 μM PI:PS in substrate mix, 1 h at room temperature, read-out: Median IC50 uM Adapta
Sequence of Vps34 enzyme (Q8NEB9 whole entry): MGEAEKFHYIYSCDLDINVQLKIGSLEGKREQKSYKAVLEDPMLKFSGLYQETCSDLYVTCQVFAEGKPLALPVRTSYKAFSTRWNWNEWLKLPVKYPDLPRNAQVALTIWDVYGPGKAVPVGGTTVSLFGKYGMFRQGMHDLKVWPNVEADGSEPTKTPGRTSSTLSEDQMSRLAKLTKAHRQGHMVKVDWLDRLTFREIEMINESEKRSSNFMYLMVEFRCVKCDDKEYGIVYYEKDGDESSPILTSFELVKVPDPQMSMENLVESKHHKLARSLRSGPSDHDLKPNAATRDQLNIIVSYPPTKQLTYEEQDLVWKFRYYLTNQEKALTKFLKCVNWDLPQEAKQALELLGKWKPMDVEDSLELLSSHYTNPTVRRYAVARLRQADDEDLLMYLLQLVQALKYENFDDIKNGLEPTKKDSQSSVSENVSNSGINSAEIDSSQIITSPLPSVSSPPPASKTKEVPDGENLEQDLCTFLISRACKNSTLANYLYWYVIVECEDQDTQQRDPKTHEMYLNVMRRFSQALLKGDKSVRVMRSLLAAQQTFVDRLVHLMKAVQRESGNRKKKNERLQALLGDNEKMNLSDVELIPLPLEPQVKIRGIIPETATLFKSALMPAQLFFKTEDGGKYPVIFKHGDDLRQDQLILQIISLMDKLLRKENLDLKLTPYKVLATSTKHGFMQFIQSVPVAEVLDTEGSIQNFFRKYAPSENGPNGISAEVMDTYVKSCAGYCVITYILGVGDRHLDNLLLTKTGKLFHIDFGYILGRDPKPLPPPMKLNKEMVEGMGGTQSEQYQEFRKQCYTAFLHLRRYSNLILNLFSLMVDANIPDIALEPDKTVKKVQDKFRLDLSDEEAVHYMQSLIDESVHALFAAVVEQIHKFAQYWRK
Experimental: Dilution series of compounds of the invention were prepared in DMSO at 100 times the final assay concentration (n1=n0/3 in 10 points). The compounds were further diluted to 4 times the assay concentration in assay buffer (Life technologies buffer Q, PV5125, diluted 5 times supplemented with 2 mM DTT and 2 mM MnCl2). 2.5 μl of the diluted compounds were added to a 384 well assay plate followed by 2.5 μl of 16.5 nM Vps34 enzyme (Life technologies, PV5126). Enzyme and compounds were pre-incubated at rt for 15 min. Then 5 μl of substrate mix containing 20 μM ATP (Life technologies, PV3227) and 200 μM PI:PS substrate (Life technologies, PV5122) in assay buffer was added to the wells containing compound and enzyme. Mixing was performed by pipetting several times. The reaction was incubated at room temperature for 1 h. Then 5 μl stop-detection mix, prepared as described in the Adapta kinase assay kit instructions (Life technologies, PV5099) containing Adapta Eu-anti-ADP antibody (2.3 nM), Alexa Fluor 647 ADP tracer (9 nM) and EDTA (30 mM) in TR-FRET buffer, was added to quench the reaction. Mixing was performed by pipetting several times. The assay plate was then incubated at room temperature for 30 min and read with Artemis micro plate reader. Percent inhibition of the compounds as compared to DMSO treated control samples was calculated. By the use of Dotmatics software compound concentration versus percent inhibition was fitted to generate IC50 values.

[1] = test system: autophagy in HOS cells (GFP-LC3); experiment: High content screening autophagy assay (GFP-LC3 foci); format: cell-based, Human; conditions: foci area per cell, read-out: Median IC50 (uM) Cellular assay
Experimental: Human osteosarcoma cells (HOS) stably expressing a Green Fluorescent Protein (GFP) tagged LC3 (GFP-LC3) were used to determine the inhibitory effect on autophagy of proprietary compounds. For that purpose, autophagy was activated by using the mTOR inhibitor KU-0063794 at 500 nM in the presence of Bafilomycin A1 (Sigma-Aldrich) at 5 nM. Shortly, cells were plated overnight in clear bottom 96-well plates in DMEM-High Modified media (Hi-Clone Cat #SH30285.01). At the start of the experiment, the media was removed and replaced with fresh media containing the mTOR inhibitor, Bafilomycin A1 and the vehicle or a test compound as indicated. After 6 hours the media was removed, cells were washed twice with ice-cold phosphate buffered saline (PBS) and fixed with 4% paraformaldehyde for 20 minutes at room temperature. Then the cells were washed twice with ice-cold PBS before adding Hoechst 33342 at 1 μg/ml in PBS for nuclear staining. After incubation overnight at 4° C., cells were washed once with PBS to remove the excess of dye and 100 μl of PBS was added to each well. Images were acquired at 20× magnification, 6 images per well, using the ImageXpress automated microscope (Molecular Devices Inc.) and analyzed with MetaXpress software to identify LC3-GFP foci. Foci area per cell values were used to generate dose response curves and IC50 values were calculated using the non-linear fitting analysis in GraphPad Prism software.

[2] = Homo sapiens, HOS, 6 h, HOS cells with GFP-LC3, autophagy activated by KU-0063794 500 nM with Bafilomycin A1 5 nM

SMILES | IC50 (Vps34 enzyme) | IC50 [1, 2] | IC50 ([1]; HOS cells with GFP-LC3, autophagy activated by KU-0063794 500 nM with Bafilomycin A1 5 nM, 6 hours)
CC1COCCN1c1cc(N2CCCC2c2ccccc2)[nH]c(=O)c1 (stereo not drawn) [Example 9, 4-(3-methylmorpholin-4-yl)-6-(2-phenylpyrrolidin-1-yl)-1H-pyridin-2-one] | 0.02 µM | 2 µM | –
O=c1cc(N2CCOCC2)cc(N2CCC[C@H]2c2ccccc2)[nH]1 [Example 3, 4-morpholino-6-[(2S)-2-phenylpyrrolidin-1-yl]-1H-pyridin-2-one] | 0.2 µM | 13 µM | –
C[C@@H]1COCCN1c1cc(N2CCCCC2C(F)(F)F)[nH]c(=O)c1 (mixture of isomers) [Example 25, (R) and (S) 4-[(3R)-3-methylmorpholin-4-yl]-6-[2-(trifluoromethyl)-1-piperidyl]-1H-pyridin-2-one] | 0.004 µM | 0.02 µM | –
C[C@@H]1COCCN1c1cc(N2CCCC2c2cccc(C3CC3)c2)[nH]c(=O)c1 (stereo partly drawn) [Example 37, 6-[2-(3-cyclopropylphenyl)pyrrolidin-1-yl]-4-[(3R)-3-methylmorpholin-4-yl]-1H-pyridin-2-one] | 0.02 µM | 0.3 µM | –
C[C@@H]1COCCN1c1cc(N2CCOCC2c2ccccc2)[nH]c(=O)c1 (single isomer, unassigned) [Example 26_1] | 0.04 µM | 0.2 µM | –
C[C@@H]1COCCN1c1cc(N2CCCC2c2ccccc2)[nH]c(=O)c1 (single isomer, unassigned) [Example 18_2] | 0.02 µM | 1 µM | –
CC1COCCN1c1cc(N2CCCC2c2cccnc2)[nH]c(=O)c1 (stereo not drawn) [Example 8, 4-(3-methylmorpholin-4-yl)-6-[2-(3-pyridyl)pyrrolidin-1-yl]-1H-pyridin-2-one] | 0.05 µM | 10 µM | –
O=c1cc(N2CCOCC2)cc(N2CCC[C@@H]2c2ccccc2)[nH]1 [Example 4, 4-morpholino-6-[(2R)-2-phenylpyrrolidin-1-yl]-1H-pyridin-2-one] | 0.05 µM | 9 µM | –
C[C@@H]1COCCN1c1cc(N2CCCC2c2cccc(F)c2)[nH]c(=O)c1 (mixture of isomers) [Example 13, (R) and (S) 6-[2-(3-fluorophenyl)pyrrolidin-1-yl]-4-[(3R)-3-methylmorpholin-4-yl]-1H-pyridin-2-one] | 0.02 µM | 2 µM | –
C[C@@H]1COCCN1c1cc(N2CCCC2c2cccc(Cl)c2)[nH]c(=O)c1 (mixture of isomers) [Example 36, (R) and (S) 6-[2-(3-chlorophenyl)pyrrolidin-1-yl]-4-[(3R)-3-methylmorpholin-4-yl]-1H-pyridin-2-one] | 0.02 µM | 0.03 µM | –
C[C@@H]1COCCN1c1cc(N2CCCC2c2cccc(Cl)c2)[nH]c(=O)c1 (single isomer, unassigned) [Example 36_2] | 0.02 µM | – | 0.7 µM
C[C@@H]1COCCN1c1cc(N2CCC[C@@H]2C(F)(F)F)[nH]c(=O)c1 [Example 35, 4-[(3R)-3-methylmorpholin-4-yl]-6-[(2R)-2-(trifluoromethyl)pyrrolidin-1-yl]-1H-pyridin-2-one] | 0.009 µM | 0.7 µM | –
C[C@@H]1COCCN1c1cc(N2CCOCC2C(F)(F)F)[nH]c(=O)c1 (single isomer, unassigned) [Example 43_1] | 0.003 µM | 0.03 µM | –
C[C@@H]1COCCN1c1cc(N2CCCCC2C(F)(F)F)[nH]c(=O)c1 (single isomer, unassigned) [Example 25_1] | 0.002 µM | 0.03 µM | –
C[C@@H]1COCCN1c1cc(N2CCCC[C@@H]2c2ccccc2)[nH]c(=O)c1 [Example 30, 4-[(3R)-3-methylmorpholin-4-yl]-6-[(2R)-2-phenyl-1-piperidyl]-1H-pyridin-2-one] | 0.008 µM | 0.6 µM | –
CC(=O)N1CCN(c2cc(N3CCOC[C@H]3C)cc(=O)[nH]2)C(C(F)(F)F)C1 (stereo partly drawn) [Example 45, 6-[4-acetyl-2-(trifluoromethyl)piperazin-1-yl]-4-[(3R)-3-methylmorpholin-4-yl]-1H-pyridin-2-one] | 0.003 µM | 0.1 µM | –
C[C@@H]1COCCN1c1cc(N2CCN(C(=O)Cc3ccc(F)cc3)CC2C(F)(F)F)[nH]c(=O)c1 (stereo partly drawn) [Example 47, 6-[4-[2-(4-fluorophenyl)acetyl]-2-(trifluoromethyl)piperazin-1-yl]-4-[(3R)-3-methylmorpholin-4-yl]-1H-pyridin-2-one] | 0.006 µM | 0.09 µM | –
C[C@@H]1COCCN1c1cc(N2CCCC[C@@H]2C(F)(F)F)n(C)c(=O)c1 [Example 41, 1-methyl-4-[(3R)-3-methylmorpholin-4-yl]-6-[(2R)-2-(trifluoromethyl)-1-piperidyl]pyridin-2-one] | 0.01 µM | 0.08 µM | –

SMILES | IC50 (Vps34 enzyme) | IC50 [1, 2] | IC50 ([1]; HOS cells with GFP-LC3, autophagy activated by KU-0063794 500 nM with Bafilomycin A1 5 nM, 6 hours)
C[C@@H]1COCCN1c1cc(N2CCCC2c2cccc(C(F)(F)F)c2)[nH]c(=O)c1 (mixture of isomers) [Example 16, (R) and (S) 4-[(3R)-3-methylmorpholin-4-yl]-6-[2-[3-(trifluoromethyl)phenyl]pyrrolidin-1-yl]-1H-pyridin-2-one] | 0.04 µM | 0.3 µM | –
C[C@@H]1COCCN1c1cc(N2CCCC2c2cc(F)ccc2F)[nH]c(=O)c1 (single isomer, unassigned) [Example 14_2] | 0.05 µM | – | –
Cc1cc(C2CCCN2c2cc(N3CCOC[C@H]3C)cc(=O)[nH]2)nn1C (single isomer, unassigned) [Example 20_2] | 0.2 µM | – | –
C[C@@H]1COCCN1c1cc(N2CCCC2c2cccc(C(F)(F)F)c2)[nH]c(=O)c1 (single isomer, unassigned) [Example 16_1] | 0.03 µM | – | –
Cc1ccc(C2CCCN2c2cc(N3CCOC[C@H]3C)cc(=O)[nH]2)o1 (single isomer, unassigned) [Example 22_1] | 0.04 µM | – | –
C[C@@H]1COCCN1c1cc(N2CCCC2c2cccc(OC(F)(F)F)c2)[nH]c(=O)c1 (single isomer, unassigned) [Example 15_2] | 0.2 µM | – | –
CCn1ccc(C2CCCN2c2cc(N3CCOC[C@H]3C)cc(=O)[nH]2)n1 (single isomer, unassigned) [Example 21_2] | 0.3 µM | – | –
C[C@@H]1COCCN1c1cc(N2CCCC2c2cccc(F)c2)[nH]c(=O)c1 (single isomer, unassigned) [Example 13_2] | 0.1 µM | – | –
COC(C)(C)C1CCCN1c1cc(N2CCOC[C@H]2C)cc(=O)[nH]1 (single isomer, unassigned) [Example 11_2] | 0.3 µM | – | –
C[C@@H]1COCCN1c1cc(N2CCCC2c2cc(F)ccc2F)[nH]c(=O)c1 (single isomer, unassigned) [Example 14_1] | 0.02 µM | – | –
CC(=O)N1CCN(c2cc(N3CCOC[C@H]3C)cc(=O)[nH]2)CC1 [Example 29, 6-(4-acetylpiperazin-1-yl)-4-[(3R)-3-methylmorpholin-4-yl]-1H-pyridin-2-one] | 0.2 µM | – | –
C[C@@H]1COCCN1c1cc(N2CCCC2C2CCCCC2)[nH]c(=O)c1 (single isomer, unassigned) [Example 12_1] | 0.2 µM | – | –
C[C@@H]1COCCN1c1cc(N2CCCC2c2ccccc2)[nH]c(=O)c1 (single isomer, unassigned) [Example 18_1] | 0.07 µM | – | –
C[C@@H]1COCCN1c1cc(N2CCOCC23CCC3)[nH]c(=O)c1 [Example 42, 4-[(3R)-3-methylmorpholin-4-yl]-6-(8-oxa-5-azaspiro[3.5]nonan-5-yl)-1H-pyridin-2-one] | 0.03 µM | – | –
C[C@@H]1COCCN1c1cc(N2CCOCC2C2CC2)[nH]c(=O)c1 (stereo partly drawn) [Example 33, 6-(3-cyclopropylmorpholin-4-yl)-4-[(3R)-3-methylmorpholin-4-yl]-1H-pyridin-2-one] | 0.03 µM | – | –
C[C@@H]1COCCN1c1cc(N2CCCC2c2cc(F)ccc2F)[nH]c(=O)c1 (mixture of isomers) [Example 14, (R) and (S) 6-[2-(2,5-difluorophenyl)pyrrolidin-1-yl]-4-[(3R)-3-methylmorpholin-4-yl]-1H-pyridin-2-one] | 0.04 µM | – | –
C[C@@H]1COCCN1c1cc(N2CCCC2c2cnn(C)c2)[nH]c(=O)c1 (single isomer, unassigned) [Example 19_2] | 0.3 µM | – | –
